According to patent publication US9586931B2 (Merck Sharp & Dohme Corp., priority 2012, dated 2017):

The compounds below were run against T1, recombinant human GST-Syk (Homo sapiens, UniProt P43405) (assay: Homogeneous Time-Resolved Fluorescence (HTRF) assay for the recombinant human Syk enzyme). Conditions: recombinant human GST-Syk 5 pM, ATP 25 μM, 10-dose titration 10 μM to 0.508 nM; read-out: rhSYK Activity IC50.
T1 construct: purchased Carna Biosciences 08-176
Type: biochemical
Summary of the method: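 Detection used time-resolved fluorescence 30 min after adding a quench mix (40 mM EDTA, 15 mM Tris pH 7.5, 0.01% Tween 20) containing 2 nM Europium anti-pTyr antibody and 70 nM streptavidin-APC. This followed 45 min of room-temperature peptide phosphorylation by recombinant GST-tagged human Syk.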

Compared with Cc1cc(Nc2cc(C(F)(F)F)ccn2)nc(-c2cn(CC(O)CN3CCCC3=O)nn2)c1 (stereo not shown) [Example 4.30, 1-{2-hydroxy-3-[4-(4-methyl-6-{[4-(trifluoromethyl)pyridin-2-yl]amino}pyridin-2-yl)-1H-1,2,3-triazol-1-yl]propyl}pyrrolidin-2-one], Cc1cc(Nc2cc(C(F)(F)F)ccn2)nc(-c2cn(Cc3cnc(C)[nH]3)nn2)c1 [Example 5.104, 4-methyl-6-{1-[(2-methyl-1H-imidazol-5-yl)methyl]-1H-1,2,3-triazol-4-yl}-N-[4-(trifluoromethyl)pyridin-2-yl]pyridin-2-amine] is 8.3-fold lower in IC50: 0.0266 µM for the first, 0.0032 µM for the second. The second is the more potent here.

CCOC(=O)C(CC)n1cc(-c2cc(C)cc(Nc3cc(C(F)(F)F)ccn3)n2)nn1 (racemic) [Example 5.28, ethyl 2-[4-(4-methyl-6-{[4-(trifluoromethyl)pyridin-2-yl]amino}pyridin-2-yl)-1H-1,2,3-triazol-1-yl]butanoate] and COC(=O)C(c1ccc(F)cc1)n1cc(-c2cc(C)cc(Nc3cc(C(F)(F)F)ccn3)n2)nn1 (racemic) [Example 5.26, methyl (4-fluorophenyl)[4-(4-methyl-6-{[4-(trifluoromethyl)pyridin-2-yl]amino}pyridin-2-yl)-1H-1,2,3-triazol-1-yl]acetate] are within 1.5-fold of each other in IC50: 0.0765 µM for the first, 0.0629 µM for the second.

Cc1cc(Nc2cc(C(F)F)ccn2)nc(-c2cn(CC3CNC(=O)C3)nn2)c1 (single isomer, unassigned) [Example 24.2, 4-((4-(6-((4-(difluoromethyl)pyridin-2-yl)amino)-4-methylpyridin-2-yl)-1H-1,2,3-triazol-1-yl)methyl)pyrrolidin-2-one] and Cc1cc(Nc2cc(C(F)F)ccn2)nc(-c2cn(CC(C)(O)CC#N)nn2)c1 (single isomer, unassigned) [Example 23.2, 4-(4-(6-((4-(difluoromethyl)pyridin-2-yl)amino)-4-methylpyridin-2-yl)-1H-1,2,3-triazol-1-yl)-3-hydroxy-3-methylbutanenitrile] are within 1.5-fold of each other in IC50: 0.0086 µM for the first, 0.009 µM for the second.

Compared with Cc1cc(Nc2nccc(C(F)(F)F)n2)cc(-c2cn(CCCN3CCOCC3)nn2)c1 [Example 5.51, N-{3-mcthyl-5-[1-(3-morpholin-4-ylpropyl)-1H-1,2,3-triazol-4-yl]phenyl}-4-(trifluoromethyl)pyrimidin-2-amine], Cc1cc(Nc2nccc(C(F)(F)F)n2)cc(-c2cn(CC(C)(C)O)nn2)c1 [Example 5.55, 2-methyl-1-[4-(3-methyl-5-{[4-(trifluoromethyl)pyrimidin-2-yl]amino}phenyl)-1H-1,2,3-triazol-1-yl]propan-2-ol] is 7.5-fold lower in IC50: 0.177 µM for the first, 0.0235 µM for the second.

First: Cc1cc(Nc2nccc(C(F)(F)F)n2)cc(-c2cn(C[C@@]3(O)CC[C@H](C(=O)O)C(C)(C)C3)nn2)c1 (racemic) [Example 4.1, Racemic syn-4-Hydroxy-2,2-dimethyl-4-((4-(3-methyl-5-((4-(trifluoromethyl)pyrimidin-2-yl)amino)phenyl)-1H-1,2,3-triazol-1-yl)methyl)cyclohexane carboxylic acid]
Second: Cc1cc(Nc2nccc(C(F)(F)F)n2)cc(-n2cc([C@@]3(O)CC[C@H](C(=O)O)C(C)(C)C3)nn2)c1 [Example 15.9, (1S,4R)-4-hydroxy-2,2-dimethyl-4-[1-(3-methyl-5-{[4-(trifluoromethyl)pyrimidin-2-yl]amino}phenyl)-1H-1,2,3-triazol-4-yl]cyclohexanecarboxylic acid]
The IC50 of the first is 10-fold higher: 0.0814 µM for the first, 0.0081 µM for the second. The second is the more potent here.

Going from Cc1cc(Nc2cc(C(F)(F)F)ccn2)nc(-c2cn(C(C)C(=O)N3CCc4c([nH]c5ccccc45)C3)nn2)c1 (stereo not drawn) [Example 1.31, 4-methyl-6-{1-[1-methyl-2-oxo-2-(1,3,4,9-tetrahydro-2H-beta-carbolin-2-yl)ethyl]-1H-1,2,3-triazol-4-yl}-N-[4-(trifluoromethyl)pyridin-2-yl]pyridin-2-amine] to Cc1cc(Nc2cc(C(F)(F)F)ccn2)nc(-c2cn(C(C)C(=O)N3CCC(c4ccncc4)C3)nn2)c1 (stereo not shown) [Example 1.53, 4-methyl-6-{1-[1-methyl-2-oxo-2-(3-pyridin-4-ylpyrrolidin-1-yl)ethyl]-1H-1,2,3-triazol-4-yl}-N-[4-(trifluoromethyl)pyridin-2-yl]pyridin-2-amine], the IC50 falls from 0.32 µM to 0.0347 µM (9.2-fold).

First: COC(=O)C1CCC(n2cc(-c3cc(C)cc(Nc4cc(C(F)(F)F)ccn4)n3)nn2)c2ccccc21 (racemic) [Example 5.25, methyl 4-[4-(4-methyl-6-{[4-(trifluoromethyl)pyridin-2-yl]amino}pyridin-2-yl)-1H-1,2,3-triazol-1-yl]-1,2,3,4-tetrahydronaphthalene-1-carboxylate]
Second: Cc1cc(Nc2cc(C(F)(F)F)ccn2)nc(-c2cn([C@@H]3CN(C(=O)CO)C[C@H]3O)nn2)c1 (racemic) [Example 13.1, (+/−)-2-Bydroxy-1-((3R,4R)-3-hydroxy-4-(4-(4-methyl-6-((4-(trifluoromethyl)pyridin-2-yl)amino)pyridin-2-yl)-1H-1,2,3-triazol-1-yl)pyrrolidin-1-yl)ethanone]
The IC50 of the first is 130-fold higher: 0.525 µM for the first, 0.0042 µM for the second.

Going from Cc1ccnc(Nc2cc(C)cc(-c3cn(C[C@H](O)CC#N)nn3)n2)c1 [Example 5.14, (3R)-3-hydroxy-4-(4-{4-methyl-6-[(4-methylpyridin-2-yl)amino]pyridin-2-yl}-1H-1,2,3-triazol-1-yl)butanenitrile] to Cc1cc(Nc2cc(C(F)F)ccn2)nc(-c2cn(C3CCCC(O)C3O)nn2)c1 (stereo not shown) [Example 21.37, 3-(4-(6-((4-(difluoromethyl)pyridin-2-yl)amino)-4-methylpyridin-2-yl)-1H-1,2,3-triazol-1-yl)cyclohexane-1,2-diol], the IC50 falls from 0.0234 µM to 0.0019 µM (12-fold).

Going from Cc1cc(Nc2nccc(C(F)(F)F)n2)cc(-c2cn(C3COCC3O)nn2)c1 (single isomer, unassigned) [Example 4.8, 4-[4-(3-methyl-5-{[4-(trifluoromethyl)pyrimidin-2-yl]amino}phenyl)-1H-1,2,3-triazol-1-yl]tetrahydrofuran-3-ol] to COCC(C)(C)NC(=O)Cn1cc(-c2cc(C)cc(Nc3nccc(C(F)(F)F)n3)c2)nn1 [Example 5.67, N-(2-methoxy-1,1-dimethylethyl)-2-[4-(3-methyl-5-{[4-(trifluoromethyl)pyrimidin-2-yl]amino}phenyl)-1H-1,2,3-triazol-1-yl]acetamide], the IC50 rises from 0.0351 µM to 0.296 µM (8.4-fold).

Cc1cc(Nc2ncc(F)c(C(F)F)n2)cc(-c2cn(CC(C)(O)C(C)(C)O)nn2)c1 (stereo not shown) [Example 21.34, 1-[4-(3-{[4-(difluoromethyl)-5-fluoropyrimidin-2-yl]amino}-5-methylphenyl)-1H-1,2,3-triazol-1-yl]-2,3-dimethylbutane-2,3-diol] gave an IC50 of 0.0182 µM.
